{
  "source": "patent US20080268045A1",
  "about": "“SUSTAINED RELEASE METHOTREXATE FORMULATIONS AND METHODS OF USE THEREOF” (Proprius Pharmaceuticals, Inc., priority 2006, published 2008)",
  "origin": "cited, not measured here",
  "data": [
    {"smiles": "CN(Cc1cnc2nc(N)nc(N)c2n1)c1ccc(C(=O)N[C@@H](CCC(=O)O)C(=O)O)cc1", "note": "[methotrexate]", "values": [
      {"measurement": "Bioavailability of orally dosed methotrexate", "setting": "higher dose strength (10-15 mg/dose)", "result": "30-40%"},
      {"measurement": "Bioavailability of orally administered methotrexate", "setting": "lower dose strength", "result": "≤ 60", "unit": "%"}
    ]}
  ]
}
